Values of other authors as cited in US11672748B2, “Aqueous hair conditioner compositions containing solubilized anti-dandruff actives” (The Procter & Gamble Company, priority 2020, dated 2023).

Conditions: in water

Solubility in H2O (g/L)	SMILES
Negligible (lower than 0.1) g/L	C=CC(C)CCCC(C)(C)O (centres unmarked) [Dihydro Myrcenol]
(lower than 0.1) g/L	CCCCCCCCCCCC(=O)N(C)CC(=O)OC(C)C [Isoropyl N-Lauroyl Sarcosinate]
